The structures appear in SMILES notation. pIC50: −log10 of the molar value. Like-named read-outs stand apart in the source and are kept apart here. Bounds are passed on as bounds.

Data set [1] concerns the target T1, PARP1 (Homo sapiens, UniProt P09874).
T1 construct: purchased BPS 80501
Description: PARP1 enzyme assay (histone-coated plate, chemiluminescence). Type of data set: biochemical. Conditions: PARP1 0.02 nM, DNA 0.8 nM, NAD+ 3.5 µM; read-out: PARP-1 IC50.

Data set [2] has as its system BRCA-mutated MDA-MB-436 cells. Description: Anti-proliferative activity against cells (CCK8): MDA-MB-436. The following applies: Homo sapiens, 72 h + 96 h culture. The format is cell-based.
Data set [3] relates to BRCA wild-type DLD-1 cells. Description: Anti-proliferative activity against cells (CCK8): DLD-1. Type of data set: cell-based. The following applies: Homo sapiens, 72 h + 96 h culture. In a few lines: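 DLD-1 cells (1000/well) in RPMI-1640 with 10% FBS, treated 24 h after plating with PARPi at 0, 1 or 10 µM final. Cultured 72 h, medium exchanged with re-added PARPi, then a further 96 h; read-out by CCK8.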

Data set [4] has as its system CD34+ hematopoietic stem and progenitor cells (hmPB34-P-SC). Kind of data set: Hematological toxicity assay (CellTiter-Glo 2.0). The format is cell-based. Conditions: 120 h; 5 days of culture. The procedure: The next day, the cells were resuspended and seeded in a 96-well plate at a concentration of 1000 cells/well, and meanwhile, different concentrations of the drug were added for treatment, with 3 replicate wells set for each concentration. After 5 days of culture, the number of viable cells in each well was determined using a CellTiter-Glo 2.0 kit, followed by detection by a microplate reader.
For orientation: Cellular ATP, detected with luciferase, serves as a proxy for viable cell number.

Data set [5] deals with T2, hERG potassium ion channel (Homo sapiens, UniProt Q12809).
T2 construct: expressed in transfected cells; host or cells: CHO cells
T2 sequence (Q12809 whole entry): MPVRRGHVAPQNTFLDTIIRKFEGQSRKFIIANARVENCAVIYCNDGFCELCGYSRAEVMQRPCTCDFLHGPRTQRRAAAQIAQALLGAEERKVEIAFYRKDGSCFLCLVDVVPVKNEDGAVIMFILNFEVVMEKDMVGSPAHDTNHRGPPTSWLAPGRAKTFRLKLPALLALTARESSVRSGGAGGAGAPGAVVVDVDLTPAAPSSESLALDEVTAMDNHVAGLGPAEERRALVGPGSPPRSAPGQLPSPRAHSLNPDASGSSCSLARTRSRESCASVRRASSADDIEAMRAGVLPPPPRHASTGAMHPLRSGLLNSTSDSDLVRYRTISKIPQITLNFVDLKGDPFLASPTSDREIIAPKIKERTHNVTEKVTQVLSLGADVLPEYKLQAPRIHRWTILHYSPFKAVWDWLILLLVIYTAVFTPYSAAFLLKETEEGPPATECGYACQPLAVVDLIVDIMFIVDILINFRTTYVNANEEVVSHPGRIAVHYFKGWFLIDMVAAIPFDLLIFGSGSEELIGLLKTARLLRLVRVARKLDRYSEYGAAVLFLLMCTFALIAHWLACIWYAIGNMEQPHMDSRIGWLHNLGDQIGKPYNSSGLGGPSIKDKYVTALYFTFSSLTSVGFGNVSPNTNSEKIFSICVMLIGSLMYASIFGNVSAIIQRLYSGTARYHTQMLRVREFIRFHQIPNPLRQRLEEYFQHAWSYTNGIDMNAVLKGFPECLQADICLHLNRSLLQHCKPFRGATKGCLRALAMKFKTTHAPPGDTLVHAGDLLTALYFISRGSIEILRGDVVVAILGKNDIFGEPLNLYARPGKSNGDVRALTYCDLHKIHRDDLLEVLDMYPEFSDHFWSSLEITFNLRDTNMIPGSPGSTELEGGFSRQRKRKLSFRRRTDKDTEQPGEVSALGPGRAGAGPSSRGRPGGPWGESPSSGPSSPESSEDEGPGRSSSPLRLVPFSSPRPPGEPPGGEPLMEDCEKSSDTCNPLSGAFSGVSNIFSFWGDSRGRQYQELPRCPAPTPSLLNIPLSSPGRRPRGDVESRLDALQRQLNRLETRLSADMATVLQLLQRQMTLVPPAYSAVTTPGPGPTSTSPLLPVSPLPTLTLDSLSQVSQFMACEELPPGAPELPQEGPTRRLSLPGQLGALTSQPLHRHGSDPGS
Kind of data set: Inhibition of hERG potassium ion channel (Qpatch, CHO cells stably expressing hERG). Type of data set: cell-based. The following applies: for inhibitory effects on the hERG potassium ion channel (in words): conclusion of Table 17; for inhibition at 2.5 min, 20 µM: human, CHO cells stably expressing hERG, read-out: Inhibition rate at 20 µM. The protocol: Cell culture and treatment: CHO cells stably expressing hERG were cultured in a cell culture flask and incubated in an incubator with 5% CO2 at 37 °C. When the cell density reached 60%-80%, the cell culture medium was removed by pipetting. The cells were washed once with PBS, and then Detachin was added for detachment. After complete detachment, a culture medium was added for neutralization. The cells were then centrifuged, and the supernatant was removed by pipetting. A culture medium was further added for resuspension, and the cell density was adjusted to (2-5) × 10^6 cells/mL for later use.
Compound preparation: The compound stock solution was diluted with 100% DMSO. Specifically, 10 µL of the compound stock solution was added to 20 µL of DMSO, followed by a 3-fold serial dilution to obtain 6 concentrations. 4 µL of each of the 6 compound solutions at different concentrations was taken and added to 396 µL of an extracellular fluid, resulting in a 100-fold dilution to obtain 6 intermediate concentrations. Then, 80 µL of each of the 6 intermediate-concentration compound solutions was taken and added to 320 µL of an extracellular fluid, resulting in a 5-fold dilution to achieve the final test concentrations. The highest test concentration was 40 µM. […] DMSO at this concentration has no effect on the hERG potassium channel. During the compound preparation, the entire dilution process was completed by a Bravo instrument.
Electrophysiological recording process: The single-cell high-impedance sealing and whole-cell mode formation processes were all completed automatically by a Qpatch instrument. After achieving the whole-cell recording mode, the cells were clamped at -80 mV. Before a 5-second +40 mV depolarizing stimulus was applied, a 50-millisecond -50 mV prepulse voltage was first applied. The potential was then repolarized to -50 mV and held for 5 s, and finally returned to -80 mV. This voltage stimulation was applied every 15 s. After 2 min of recording, the extracellular fluid was administered, followed by recording for 5 min. Then, the compound administration process began, starting from the lowest test compound concentration. Each test concentration was applied for 2.5 min. After all the concentrations were applied consecutively, the positive control compound, 3 µM Cisapride, was administered. At least 3 cells (n ≥ 3) were tested for each concentration.
Data processing: Data analysis and processing were performed using GraphPad Prism 5.0 and Excel software. The IC50 of the compound was calculated using GraphPad Prism 5 software by equation fitting as follows: Y = Bottom + (Top−Bottom)/(1+10^(∧)((LogIC50−X)*HillSLope)) [formula] where X is the Log value of the test concentration of the test sample, Y is the inhibition percentage at the corresponding concentration, and Bottom and Top are the minimum and maximum inhibition percentages, respectively. Table 17. Results of inhibition of hERG potassium ion channel by compounds
For orientation: Block of hERG is tested as a sign of cardiac risk.

Data set [6] can be described thus: Cerebrospinal fluid and plasma distribution in vivo. Conditions: rat, male rats, intravenous 5 mg/kg, n = 1. The procedure:
Experimental procedures: The compound was weighed out, a small amount of DMSO was added, and then a sodium chloride solution for injection was added to prepare a 5 mg·mL^-1 compound solution for later administration. […] 10 µL of the plasma and 10 µL of the cerebrospinal fluid were each added to a centrifuge tube, and 40 µL of acetonitrile containing 20 ng·mL^-1 internal standard SAHA was added for precipitation. […] The supernatant was collected and transferred to a sample vial for later analysis. Range of standard curve: 1-1000 ng·mL^-1.

Where [7] appears, read: cerebrospinal fluid, read-out: Cerebrospinal fluid.

T1 sequence (P09874 whole entry): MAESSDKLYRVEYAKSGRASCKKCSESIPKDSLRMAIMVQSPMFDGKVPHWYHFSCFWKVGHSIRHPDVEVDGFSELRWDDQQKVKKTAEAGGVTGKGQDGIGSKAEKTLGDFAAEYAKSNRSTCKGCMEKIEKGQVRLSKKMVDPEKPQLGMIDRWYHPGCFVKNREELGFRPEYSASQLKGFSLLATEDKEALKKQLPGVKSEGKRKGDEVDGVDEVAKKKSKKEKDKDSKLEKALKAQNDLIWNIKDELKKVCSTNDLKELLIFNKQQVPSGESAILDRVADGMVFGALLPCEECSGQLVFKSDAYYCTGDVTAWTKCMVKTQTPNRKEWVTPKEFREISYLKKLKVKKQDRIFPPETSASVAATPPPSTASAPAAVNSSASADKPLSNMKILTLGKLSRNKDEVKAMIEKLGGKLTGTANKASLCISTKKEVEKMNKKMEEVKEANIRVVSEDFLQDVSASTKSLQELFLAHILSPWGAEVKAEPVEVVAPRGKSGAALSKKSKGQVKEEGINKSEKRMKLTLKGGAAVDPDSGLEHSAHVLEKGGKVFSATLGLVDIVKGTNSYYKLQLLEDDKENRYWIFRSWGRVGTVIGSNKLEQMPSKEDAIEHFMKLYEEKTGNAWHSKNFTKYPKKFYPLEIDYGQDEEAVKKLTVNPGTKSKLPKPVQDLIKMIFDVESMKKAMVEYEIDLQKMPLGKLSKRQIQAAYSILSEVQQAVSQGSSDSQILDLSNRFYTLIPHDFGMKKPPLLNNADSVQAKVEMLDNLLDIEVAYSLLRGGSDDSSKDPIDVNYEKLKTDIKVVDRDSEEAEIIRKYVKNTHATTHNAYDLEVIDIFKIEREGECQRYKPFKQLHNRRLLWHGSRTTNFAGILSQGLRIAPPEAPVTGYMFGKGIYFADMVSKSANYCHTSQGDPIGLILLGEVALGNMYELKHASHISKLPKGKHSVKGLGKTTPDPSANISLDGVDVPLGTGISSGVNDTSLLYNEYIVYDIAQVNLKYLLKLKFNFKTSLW

Broadly, the pIC50 is the IC50 on a negative log10 scale, so that one unit is a factor of ten. Turning to `CNC(=O)c1ccc(N2CCN(C[C@H]3CCc4nc(C)c(=O)[nH]c4C3)CC2)c(Cl)n1` [Example 106, (S)-6-Chloro-N-methyl-5-(4-((2-methyl-3-oxo-3,4,5,6,7,8-hexahydroquinoxalin-6-yl)methyl)piperazin-1-yl)picolinamide], the negative-log IC50 (pIC50) in data set [1] was no less than 7.30; in data set [2], 8.19; in data set [3] it was less than 6.00; in data set [4], less than 6.00.

For the molecule `Cc1nc2c([nH]c1=O)C[C@@H](CN1CCN(c3ccc(C(=O)NC4CC4)nc3F)CC1)CC2` [Example 81, (S)-N-Cyclopropyl-6-fluoro-5-(4-((2-methyl-3-oxo-3,4,5,6,7,8-hexahydroquinoxalin-6-yl)methyl)piperazin-1-yl)picolinamide], the pIC50 in data set [1] was no less than 7.30; in data set [2] it was 8.39; in data set [3], less than 6.00; in data set [4], less than 6.00.

What is called inhibition is the drop in the measured response relative to a control, in per cent. In the case of `CNC(=O)c1ccc(N2CCN(CC3Cc4[nH]c(=O)c(SC)cc4CO3)CC2)c(C)n1` (stereo not drawn) [Example 87, N,6-Dimethyl-5-(4-((3-(methylthio)-2-oxo-1,5,7,8-tetrahydro-2H-pyrano[4,3-b]pyridin-7-yl)methyl)piperazin-1-yl)picolinamide], the negative-log IC50 (pIC50) in data set [1] was no less than 7.30; in data set [2], 8.07; in data set [3], less than 6.00. In addition, the “inhibitory effects on the hERG potassium ion channel (in words)” value (“inhibitory effects” below) in data set [5] is “Conclusion: Compounds 2, 6, 45, 62, 67, 74, 83, 87, etc., of the present disclosure exhibited relatively weak inhibitory effects on the hERG potassium ion channel”. The inhibition at 2.5 min, 20 µM in data set [5] was 7.34%.

On to `CCc1cc2c([nH]c1=O)CC(CN1CC=C(c3ccc(C(=O)NC)nc3F)CC1)OC2` (stereo not drawn) [Compound 6, 1'-((3-Ethyl-2-oxo-1,5,7,8-tetrahydro-2H-pyrano[4,3-b]pyridin-7-yl)methyl)-2-fluoro -N-methyl-1',2',3',6'-tetrahydro-[3,4'-bipyridine]-6-carbo xamide], for which the figures for the pIC50 in data set [1], in data set [2] and in data set [3] were no less than 7.30, 9.00 and less than 6.00, respectively. Besides, the “inhibitory effects” value in data set [5] is on record as “Conclusion: Compounds 2, 6, 45, 62, 67, 74, 83, 87, etc., of the present disclosure exhibited relatively weak inhibitory effects on the hERG potassium ion channel”. Besides, the inhibition at 2.5 min, 20 µM in data set [5] is 7.97%.

Take `Cc1cc2c([nH]c1=O)CC(CN1CCN(c3ccc(C(=O)NC4CC4)nc3Cl)CC1)OC2` (stereo not drawn) [Example 62, 6-Chloro-N-cyclopropyl-5-(4-((3-methyl-2-oxo-1,5,7,8-tetrahydro-2H-pyrano[4,3-b]pyridin-7-yl)methyl)piperazin-1-yl)picolinamide]: the pIC50 is no less than 7.30 in data set [1], 8.46 in data set [2] and less than 6.00 in data set [3]. Further, the “inhibitory effects” value in data set [5] is “Conclusion: Compounds 2, 6, 45, 62, 67, 74, 83, 87, etc., of the present disclosure exhibited relatively weak inhibitory effects on the hERG potassium ion channel”. Besides, the inhibition at 2.5 min, 20 µM in data set [5] is 49.8%.

`CNC(=O)c1ccc(N2CCN(CC3COc4cc(C)c(=O)[nH]c4C3)CC2)c(F)n1` (stereo not drawn) [Example 101, 6-Fluoro-N-methyl-5-(4-((7-methyl-6-oxo-3,4,5,6-tetrahydro-2H-pyrano[3,2-b]pyridin-3-yl)methyl)piperazin-1-yl)picolinamide]: the results for the pIC50 in data set [1] and in data set [3] were no less than 7.30 and less than 6.00, respectively. Moreover, the concentration at 0.25 h is 52 ng/g in data set [6] (setting [7]) and 2820 ng/mL in data set [6] (plasma, read-out: Plasma). The concentration at 2 h in data set [6] (setting [7]) worked out at 8 ng/g; in data set [6] (plasma, read-out: Plasma) it was 592 ng/mL.

Consider `CNC(=O)c1ccc(N2CCN(CC3Cc4[nH]c(=O)c(Cl)cc4CO3)CC2)c(F)n1` (stereo not drawn) [Example 64, 5-(4-((3-Chloro-2-oxo-1,5,7,8-tetrahydro-2H-pyrano[4,3-b]pyridin-7-yl)methyl)piperazin-1-yl)-6-fluoro-N-methylpicolinamide], for which the pIC50 in data set [1] is 6.30 to 7.30; in data set [3], less than 6.00. The concentration at 0.25 h in data set [6] (setting [7]) amounted to 102 ng/g; in data set [6] (plasma, read-out: Plasma) it was 1620 ng/mL. Also, the concentration at 2 h was found to be 0 ng/g in data set [6] (setting [7]) and 503 ng/mL in data set [6] (plasma, read-out: Plasma).

`[2H]C([2H])([2H])NC(=O)c1ccc(N2CCN(C[C@H]3CCc4nc(C)c(=O)[nH]c4C3)CC2)c(F)n1` [Example 82, (S)-6-Fluoro-N-(methyl-d3)-5-(4-((2-methyl-3-oxo-3,4,5,6,7,8-hexahydroquinoxalin-6-yl)methyl)piperazin-1-yl)picolinamide]: the pIC50 in data set [3] was less than 6.00. Besides, the concentration at 0.25 h in data set [6] (setting [7]) stood at 119 ng/g; in data set [6] (plasma, read-out: Plasma) it was 2740 ng/mL. Also, the concentration at 2 h turned out to be 0 ng/g in data set [6] (setting [7]) and 77 ng/mL in data set [6] (plasma, read-out: Plasma).

For the molecule `CCc1cc2c([nH]c1=O)CC(CN1CC=C(c3ccc(C(=O)NC)nc3)CC1)OC2` (stereo not drawn) [Compound 5, 1'-((3-Ethyl-2-oxo-1,5,7,8-tetrahydro-2H-pyrano[4,3-b]pyridin-7-yl)methyl)-N-methyl-1',2',3',6'-tetrahydro-[3,4'-bipyridine]-6-carboxamide], the values for the negative-log IC50 (pIC50) in data set [1], in data set [2] and in data set [3] were no less than 7.30, 8.12 and less than 6.00, respectively.

`CNC(=O)c1ccc(N2CCN(CC3Cc4[nH]c(=O)c(C)cc4CO3)CC2)c(F)n1` (stereo not drawn) [Example 39, 6-Fluoro-N-methyl-5-(4-((3-methyl-2-oxo-1,5,7,8-tetrahydro-2H-pyrano[4,3-b]pyridin-7-yl)methyl)piperazin-1-yl)picolinamide]: the pIC50 in data set [1] is 6.30 to 7.30; in data set [3], less than 6.00. The concentration at 0.25 h was determined as 103 ng/g in data set [6] (setting [7]) and 8200 ng/mL in data set [6] (plasma, read-out: Plasma). Further, the concentration at 2 h stood at 26 ng/g in data set [6] (setting [7]) and 4890 ng/mL in data set [6] (plasma, read-out: Plasma).

For the molecule `CNC(=O)c1ccc(N2CCN(C[C@H]3CCc4nc(C)c(=O)[nH]c4C3)CC2)c(C)n1` [Example 47, (S)-N,6-Dimethyl-5-(4-((2-methyl-3-oxo-3,4,5,6,7,8-hexahydroquinoxalin-6-yl)methyl)piperazin-1-yl)picolinamide], the pIC50 is no less than 7.30 in data set [1], 8.40 in data set [2] and less than 6.00 in data set [3]. For the same molecule, the concentration at 0.25 h stood at 64 ng/g in data set [6] (setting [7]) and 1010 ng/mL in data set [6] (plasma, read-out: Plasma). Also, the concentration at 2 h in data set [6] (setting [7]) worked out at 13 ng/g; in data set [6] (plasma, read-out: Plasma), 43 ng/mL.

As to `[2H]C([2H])([C@H]1CCc2nc(C)c(=O)[nH]c2C1)N1CCN(c2ccc(C(=O)NC)nc2F)CC1` [Example 83, (S)-6-Fluoro-N-methyl-5-(4-((2-methyl-3-oxo-3,4,5,6,7,8-hexahydroquinoxalin-6-yl)methyl-d 2)piperazin-1-yl)picolinamide], the pIC50 in data set [3] is less than 6.00. In data set [5], the “inhibitory effects” value is reported as “Conclusion: Compounds 2, 6, 45, 62, 67, 74, 83, 87, etc., of the present disclosure exhibited relatively weak inhibitory effects on the hERG potassium ion channel” and the inhibition at 2.5 min, 20 µM was determined as 0.92%. In data set [6] (setting [7]), the concentration at 0.25 h stood at 86 ng/g and the concentration at 2 h is 0 ng/g. In addition, in data set [6] (plasma, read-out: Plasma), the concentration at 0.25 h came to 1500 ng/mL and the concentration at 2 h worked out at 28 ng/mL.

For the origin of these results see patent publication EP4768487A1, “FUSED LACTAM RING COMPOUND AND USE THEREOF” (Chengdu Zenitar Biomedical Technology Co., Ltd., priority 2023, dated 2025).
